The source of these data is patent publication US9751858B2, “3-heteroaroylamino-propionic acid derivatives and their use as pharmaceuticals” (SANOFI, priority 2011, dated 2017).

The experiment deals with T1, Recombinant human cathepsin A (Homo sapiens, UniProt P10619).
T1 construct: Recombinant human cathepsin A (residues 29-480, with a C-terminal 10-His tag); 10-His (C); purchased R&D Systems 1049-SE
T1 sequence (P10619 29-326 limits assumed): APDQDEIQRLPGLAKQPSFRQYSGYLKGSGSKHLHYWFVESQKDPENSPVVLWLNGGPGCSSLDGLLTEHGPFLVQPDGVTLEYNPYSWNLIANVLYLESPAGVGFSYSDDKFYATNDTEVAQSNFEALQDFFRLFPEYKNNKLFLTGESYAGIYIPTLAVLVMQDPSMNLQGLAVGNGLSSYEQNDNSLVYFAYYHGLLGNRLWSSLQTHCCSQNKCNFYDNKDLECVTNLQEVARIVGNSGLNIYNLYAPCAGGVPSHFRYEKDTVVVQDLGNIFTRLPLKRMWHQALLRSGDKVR
T1 sequence (P10619 327-480 limits assumed): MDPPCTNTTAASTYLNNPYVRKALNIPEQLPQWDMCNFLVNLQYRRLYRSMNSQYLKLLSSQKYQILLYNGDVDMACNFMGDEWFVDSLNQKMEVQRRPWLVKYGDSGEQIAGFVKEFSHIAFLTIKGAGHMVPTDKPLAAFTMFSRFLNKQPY
As to the kind of experiment: Cathepsin A inhibitory activity. Type of experiment: biochemical. Conditions: activated recombinant human cathepsin A 833 ng/ml, Bodipy FL-labeled bradykinin 2 μM, pH 5.5, 15 min room temperature. On the procedure:
a) Cathepsin a Inhibitory Activity
Briefly, cathepsin A was incubated at 10 μg/ml with cathepsin L at 1 μg/ml in activation buffer (25 mM 2-(morpholin-4-yl)-ethanesulfonic acid (MES), pH 6.0, containing 5 mM dithiothreitol (DTT)) for 15 min at 37° C.
The activated cathepsin A was diluted in assay buffer (25 mM MES, pH 5.5, containing 5 mM DTT) and mixed with the test compound (dissolved in assay buffer containing (v/v) 3% DMSO) or, in the control experiments, with the vehicle in a multiple assay plate. After incubation for 15 min at room temperature, as substrate then bradykinin carrying an N-terminal ®Bodipy FL (4,4-difluoro-5,7-dimethyl-4-bora-3a,4a-diaza-s-indacene-3-propionyl) label (JPT Peptide Technologies GmbH; dissolved in assay buffer) was added to the mixture. […] After incubation for 15 min at room temperature the reaction was stopped by the addition of stop buffer (130 mM 2-(4-(2-hydroxy-ethyl)-piperazin-1-yl)-ethanesulfonic acid, pH 7.4, containing (v/v) 0.013%® Triton X-100, 0.13% Coating Reagent 3 (Caliper Life Sciences), 6.5% DMSO and 20 μM ebelactone B (Sigma, # E0886)).
Uncleaved substrate and product were then separated by a microfluidic capillary electrophoresis on a LabChip® 3000 Drug Discovery System (12-Sipper-Chip; Caliper Life Sciences) and quantified by determination of the respective peak areas. Substrate turnover was calculated by dividing product peak area by the sum of substrate and product peak areas, and the enzyme activity and the inhibitory effect of the test compound thus quantified.

For orientation: IC50 means the concentration needed to halve the response being measured. For `Cc1ccccc1[C@H](CC(=O)O)NC(=O)c1cc(-c2ccccc2)n(Cc2ccc(F)cc2)n1` [Example 118, (S)-3-{[1-(4-Fluoro-benzyl)-5-phenyl-1H-pyrazole-3-carbonyl]-amino}-3-o-tolyl-propionic acid], the IC50 amounted to 1.54 µM.
For `O=C(N[C@@H](Cc1ccc(Cl)cc1)C(=O)O)c1noc(-c2cnccc2C(F)(F)F)n1` [Example 99, (S)-3-(4-Chloro-phenyl)-2-{[5-(4-trifluoromethyl-pyridin-3-yl)-[1,2,4]oxadiazole-3-carbonyl]-amino}-propionic acid] the value was greater than 10 µM; for `CC(C)c1oc(-c2ccccc2)nc1C(=O)N[C@@H](CC(=O)O)c1ccc(Cl)cc1Cl` [Example 105, (S)-3-(2,4-Dichloro-phenyl)-3-[(5-isopropyl-2-phenyl-oxazole-4-carbonyl)-amino]-propionic acid], 9.21 µM.
With `CCCC1CCCCN1C(=O)c1cc(C(=O)N[C@@H](CC(=O)O)c2cccc(C)c2)nn1CC` (stereo partly drawn) [Example 116, (S)-3-{[1-Ethyl-5-(2-propyl-piperidine-1-carbonyl)-1H-pyrazole-3-carbonyl]-amino}-3-m-tolyl-propionic acid] the figure was 4.56 µM.
With `O=C(O)C[C@H](NC(=O)c1nc(-c2ccccc2)n(-c2ccccc2)n1)c1cccc(Cl)c1Cl` [Example 124, (S)-3-(2,3-Dichloro-phenyl)-3-[(1,5-diphenyl-1H-[1,2,4]triazole-3-carbonyl)-amino]-propionic acid] the figure was 0.0509 µM; with `Cc1ccc([C@H](CC(=O)O)NC(=O)c2noc(-c3cccc(F)c3F)n2)cc1` [Example 38, (S)-3-{[5-(2,3-Difluoro-phenyl)-[1,2,4]oxadiazole-3-carbonyl]-amino}-3-p-tolyl-propionic acid], 6 µM.
Turning to `O=C(O)C[C@H](NC(=O)CCc1nc(-c2ccccc2F)no1)c1ccc(F)cc1` [Example 58, (S)-3-(4-Fluoro-phenyl)-3-{3-[3-(2-fluoro-phenyl)-[1,2,4]oxadiazol-5-yl]-propionylamino}-propionic acid], the IC50 is greater than 10 µM.
With `Cc1oc(-c2ccccc2F)nc1C(=O)N[C@@H](CC(=O)O)c1cccc(Cl)c1` [Example 61, (S)-3-(3-Chloro-phenyl)-3-{[2-(2-fluoro-phenyl)-5-methyl-oxazole-4-carbonyl]-amino}-propionic acid] the figure was 0.189 µM.
For `Cc1oc(-c2ccccc2)nc1C(=O)N[C@@H](CC(=O)O)c1ccccc1Cl` [Example 32, (S)-3-(2-Chloro-phenyl)-3-[(5-methyl-2-phenyl-oxazole-4-carbonyl)-amino]-propionic acid] the value was 1.21 µM; for `COc1cccc([C@H](CC(=O)O)NC(=O)c2nc(-c3ccccc3)oc2C(C)C)c1` [Example 65, (S)-3-[(5-Isopropyl-2-phenyl-oxazole-4-carbonyl)-amino]-3-(3-methoxy-phenyl)-propionic acid], greater than 10 µM; for `CCCC1CCCCN1C(=O)c1cc(C(=O)N[C@@H](CC(=O)O)c2ccc(C)cc2)nn1CC` (stereo partly drawn) [Example 115, (S)-3-{[1-Ethyl-5-(2-propyl-piperidine-1-carbonyl)-1H-pyrazole-3-carbonyl]-amino}-3-p-tolyl-propionic acid], 2.5 µM.
With `O=C(O)C[C@@H](Cc1ccccc1)NC(=O)c1noc(-c2cccc(F)c2F)n1` [Example 41, (R)-3-{[5-(2,3-Difluoro-phenyl)-[1,2,4]oxadiazole-3-carbonyl]-amino}-4-phenyl-butyric acid] the figure was 13.4 µM.
Turning to `O=C(O)C[C@H](NC(=O)CCc1nc(-c2ccccc2F)no1)c1ccccc1F` [Example 59, (S)-3-(2-Fluoro-phenyl)-3-{3-[3-(2-fluoro-phenyl)-[1,2,4]oxadiazol-5-yl]-propionylamino}-propionic acid], the IC50 came out at 0.337 µM.
With `Cc1oc(-c2ccccc2)nc1C(=O)N[C@@H](CC(=O)O)c1cccc(Cl)c1Cl` [Example 76, (S)-3-(2,3-Dichloro-phenyl)-3-[(5-methyl-2-phenyl-oxazole-4-carbonyl)-amino]-propionic acid] the figure was 0.59 µM; with `Cc1ccccc1[C@H](CC(=O)O)NC(=O)c1nn(C(C)C)c2ccccc12` [Example 6, (S)-3-[(1-Isopropyl-1H-indazole-3-carbonyl)-amino]-3-o-tolyl-propionic acid], 0.351 µM; with `COc1ccc([C@H](CC(=O)O)NC(=O)c2nc(-c3ccccc3)oc2C)cc1` [Example 23, (S)-3-(4-Methoxy-phenyl)-3-[(5-methyl-2-phenyl-oxazole-4-carbonyl)-amino]-propionic acid], 2.39 µM.
Take `C[C@@](CC(=O)O)(NC(=O)c1noc(-c2ccccc2F)n1)c1ccccc1` [Example 14, (S)-3-{[5-(2-Fluoro-phenyl)-[1,2,4]oxadiazole-3-carbonyl]-amino}-3-phenyl-butyric acid]: the IC50 is 17.4 µM.
With `Cc1oc(-c2ccccc2)nc1C(=O)N[C@@H](CC(=O)O)c1ccccc1F` [Example 7, (S)-3-(2-Fluoro-phenyl)-3-[(5-methyl-2-phenyl-oxazole-4-carbonyl)-amino]-propionic acid] the figure was 4.13 µM.
With `Cc1oc(-c2ccccc2F)nc1C(=O)N[C@@H](CC(=O)O)c1ccc(Cl)cc1` [Example 63, (S)-3-(4-Chloro-phenyl)-3-{[2-(2-fluoro-phenyl)-5-methyl-oxazole-4-carbonyl]-amino}-propionic acid], the IC50 came out at 3.41 µM.
For `Cc1ccc([C@H](CC(=O)O)NC(=O)c2nc(C(C)C)n(-c3ccccc3Cl)n2)cc1` [Example 85, (S)-3-{[1-(2-Chloro-phenyl)-5-isopropyl-1H-[1,2,4]triazole-3-carbonyl]-amino}-3-p-tolyl-propionic acid] the value was 0.28 µM; for `O=C(O)C[C@H](NC(=O)CCc1nc(-c2ccccc2F)no1)c1cccc(C(F)(F)F)c1` [Example 113, (S)-3-{3-[3-(2-Fluoro-phenyl)-[1,2,4]oxadiazol-5-yl]-propionylamino}-3-(3-trifluoromethyl-phenyl)-propionic acid], greater than 10 µM.
For `CCc1nc(C(=O)N[C@@H](CC(=O)O)c2ccccc2)nn1-c1ccccc1Cl` [Example 56, (S)-3-{[1-(2-Chloro-phenyl)-5-ethyl-1H-[1,2,4]triazole-3-carbonyl]-amino}-3-phenyl-propionic acid] the value was 1.68 µM.
For `CC(C)c1oc(-c2ccccc2)nc1C(=O)N[C@@H](CC(=O)O)c1ccccc1Cl` [Example 67, (S)-3-(2-Chloro-phenyl)-3-[(5-isopropyl-2-phenyl-oxazole-4-carbonyl)-amino]-propionic acid] the value was 1.4 µM.
Consider `Cc1oc(-c2ccccc2F)nc1C(=O)NC(CC(=O)O)c1ccccc1Cl` (centres unmarked) [Example 62, 3-(2-Chloro-phenyl)-3-{[2-(2-fluoro-phenyl)-5-methyl-oxazole-4-carbonyl]-amino}-propionic acid], for which the IC50 is 3.41 µM.
With `O=C(O)C[C@@H](Cc1ccccc1)NC(=O)c1nc(-c2ccccc2F)no1` [Example 11, (R)-3-{[3-(2-Fluoro-phenyl)-[1,2,4]oxadiazole-5-carbonyl]-amino}-4-phenyl-butyric acid] the figure was 4.89 µM; with `O=C(O)C[C@H](NC(=O)c1noc(-c2cccc(F)c2F)n1)c1ccccc1F` [Example 43, (S)-3-{[5-(2,3-Difluoro-phenyl)-[1,2,4]oxadiazole-3-carbonyl]-amino}-3-(2-fluoro-phenyl)-propionic acid], 0.107 µM.
